{
  "source": "paper PMC6100385",
  "about": "“Irinotecan and Δ^9-Tetrahydrocannabinol Interactions in Rat Liver: A Preliminary Evaluation Using Biochemical and Genotoxicity Markers” (Molecules : A Journal of Synthetic Chemistry and Natural …, 2018)",
  "key": {"[1]": {"conditions": "cited from earlier work"}, "humans": {"system": "humans", "parameters": "method as in PMID 11489791", "conditions": "cited from earlier work"}, "male Wistar rats [2]": {"system": "male Wistar rats", "test": "Survival and clinical signs of intoxication", "assay_type": "in vivo, rat", "conditions": "IRI 100 mg/kg b.w. i.p. once; own observations same as literature", "method": "A total of 60 rats were randomly assigned to the following four groups. Group 1: control rats were given the same daily volume of the vehicle sesame oil as the THC-treated group. […] Group 3: rats orally administered THC dissolved in sesame oil at a daily dose of 7 mg/kg b.w. for one, three and seven days, respectively. […] Each group comprised 5 animals with minimal weight variation (300 g ± 10%).\nRats had free access to food and drinking water. Their body weights were regularly monitored and the doses of THC were adjusted accordingly. Survival and clinical signs of intoxication were also evaluated on a daily basis."}, "[3]": {"system": "hepatocytes of male Wistar rats", "test": "Alkaline comet assay, primary DNA damage", "assay_type": "in vivo, rat", "method": "The obtained cellular suspension was immediately used for preparation of agarose microgels.\nTo prepare agarose microgels, we used fully frosted precleaned microscope slides (Surgipath®, Cambridgeshire, UK) precoated with 0.6% normal melting point (NMP) agarose. Suspensions of liver cells (V = 10 µL per slide) were mixed with 0.5% low melting point (LMP) agarose, placed on slides and covered with a top layer of 0.5% LMP agarose. The microgels were lysed overnight at 4 °C in a freshly prepared buffer (2.5 mol/L NaCl (Kemika, Zagreb, Croatia), 100 mmol/L Na2EDTA, 10 mmol/L Tris-HCl, 1% Na-laurylsarcosinate, pH = 10) with 1% Triton X-100 and 10% dimethyl sulfoxide (Kemika, Zagreb, Croatia). After lysis, microgels were denatured (20 min) in alkaline denaturation/electrophoresis buffer (300 mM NaOH (Kemika, Zagreb, Croatia) and 1 mM Na2EDTA, pH > 13). Electrophoresis lasted for 20 min, at 4 °C, 25 V, and 300 mA. The microgels were then neutralised using a Tris-HCl buffer (0.4 mol/L; pH = 7.5). Before microscopic analysis, the slides were stained with ethidium bromide (20 µg/mL). They were analysed using an epifluorescence microscope (Olympus BX50, Tokyo, Japan) equipped with appropriate filters, at 200× magnification. The level of DNA damage in individual cells was estimated using Comet Assay IV™ software (Instem-Perceptive Instruments Ltd., Suffolk, Halstead, UK). One well-trained scorer performed all of the comet measurements on the coded/blinded slides. Random fields were selected and the comets were captured at a constant depth of the gel, avoiding edges and occasional dead cells. A total of 200 comets per rat were measured on replicate slides in two independent evaluations (altogether 1000 individual comet measurements per each experimental group were performed). Tail length (presented in micrometres) and tail intensity (i.e., DNA% in tail) were chosen as indicators of DNA damage."}, "liver of rats [4]": {"system": "liver of rats", "test": "Superoxide dismutase (SOD) activity in the liver", "assay_type": "in vivo, rat", "conditions": "after 3 days", "method": "Total superoxide dismutase (SOD) activity was measured spectrophotometrically according to Flohé and Ötting. The reduction rate of cytochrome c by superoxide radicals was monitored at 550 nm utilizing the xanthine–xanthine oxidase system as the source for O2^•−. SOD competed for the superoxide and decreased the reduction rate of cytochrome c. One unit of SOD was defined as the amount of enzyme that inhibits the rate of cytochrome c reduction by 50%. Enzyme activity was expressed as IU/gprotein.\n(§1) Determination of protein concentration was carried out according to the method by Bradford using bovine serum albumin as standard."}, "CDF1 mice": {"system": "CDF1 mice", "parameters": "method as in PMID 9247609", "conditions": "i.p. at 100 mg/kg for six days; cited from earlier work"}, "rats": {"system": "rats", "conditions": "cited from earlier work"}, "liver cells of rats": {"system": "liver cells of rats", "parameters": "method as in PMID 19663821", "conditions": "24 h and 72 h; eleven-fold lower IRI dose than tested here; cited from earlier work"}, "liver of rats [5]": {"system": "liver of rats", "test": "Lipid peroxidation (TBARS) in the liver", "assay_type": "in vivo, rat", "method": "The concentration of thiobarbituric reactive substances (TBARS), as a measure of lipid peroxidation, was determined using a modification of the method by Drury et al.. Butylated hydroxytoluene (BHT; 5 µL; 0.2% w/v) and phosphoric acid (750 µL; 1% v/v) were added to 50 µL samples. After mixing, 250 µL 0.6% (w/w) thiobarbituric acid (TBA) and 445 µL H2O were added and the reaction mixture was incubated in a water bath at 90 °C for 30 min. The mixture was cooled and absorbance was measured at 532 nm on a Shimadzu UV Probe Spectrophotometer (Kyoto, Japan). The concentration of TBARS was calculated using standard curves of increasing 1,1,3,3-tetramethoxypropane concentrations, and expressed as µmol/L."}, "male Wistar rats [6]": {"system": "male Wistar rats", "test": "Serum bilirubin (total bilirubin)", "assay_type": "in vivo, rat", "conditions": "seven days of continuous intake", "protocol": "(§2) Serum biochemical parameters included AST, ALT, bilirubin, ALP, and total protein. These were determined using a chemical analyser (Beckman Coulter AU 480; Brea, CA, USA). Activities of AST, ALT, and ALP were expressed as U/L. The amount of total protein was expressed as g/L. Bilirubin concentration (total bilirubin) was expressed as µmol/L."}, "male Wistar rats [7]": {"system": "male Wistar rats", "conditions": "THC p.o.; days 1 and 3", "protocol": "as §2"}, "male Wistar rats [8]": {"system": "male Wistar rats", "test": "Serum alanine aminotransferase (ALT) activity", "assay_type": "in vivo, rat", "protocol": "as §2"}, "[9]": {"conditions": "low doses (<5 µg/mL or <5 µmol/L, or <1 joint/day); cited from earlier work"}, "male Wistar rats [10]": {"system": "male Wistar rats", "conditions": "THC 7 mg/kg b.w. p.o.; all three timepoints", "protocol": "as §2"}, "male Wistar rats [11]": {"system": "male Wistar rats", "test": "Serum markers of liver function, overall", "assay_type": "in vivo, rat", "conditions": "1-, 3-, 7-day treatments", "protocol": "as §2"}, "liver of rats [12]": {"system": "liver of rats", "test": "Catalase (CAT) activity in the liver", "assay_type": "in vivo, rat", "conditions": "one day after application, single dose", "method": "Catalase activity was measured at 25 °C, pH 7.0, at 240 nm. Enzyme activity was calculated using the molar extinction coefficient ([…]), and expressed as IU/gprotein.\nas §1"}, "Sprague-Dawley rats": {"system": "Sprague-Dawley rats", "conditions": "3 mg/kg b.w. i.p. for seven days; cited from earlier work"}},
  "data": [
    {"smiles": "CCc1c2c(nc3ccc(OC(=O)N4CCC(NCCCCC(=O)O)CC4)cc13)-c1cc3c(c(=O)n1C2)COC(=O)C3(O)CC", "note": "(stereo not drawn) [APC, 7-ethyl-10-[4-N-(5-aminopentanoic acid)-1-piperidino]carbonyloxycamptothecin]", "values": [
      {"measurement": "cytotoxic potential", "setting": "[1]", "result": "significantly lower cytotoxic potential"}
    ]},
    {"smiles": "CCc1c2c(nc3ccc(OC(=O)N4CCC(N5CCCCC5)CC4)cc13)-c1cc3c(c(=O)n1C2)COC(=O)[C@]3(O)CC", "note": "[IRI, 7-ethyl-10-[4-(1-piperidino)-1-piperidino] carbonyloxycamptothecin]", "values": [
      {"measurement": "maximal and recommended tolerated human doses", "setting": "humans", "result": "10–30 mg/m^2/day"},
      {"measurement": "severe diarrhoea and gastrointestinal toxicity", "setting": "male Wistar rats [2]", "result": "did not result with severe diarrhoea and gastrointestinal toxicity"},
      {"measurement": "comet tail intensity, mean, vs control and THC groups", "setting": "[3]; 1-day treatment", "result": "significantly increased"},
      {"measurement": "comet tail length, mean, vs control and THC groups", "setting": "[3]; 1-day treatment", "result": "significantly increased"},
      {"measurement": "comet tail intensity, mean, vs control and THC groups", "setting": "[3]; 3-day treatment", "result": "significantly increased"},
      {"measurement": "comet tail length, mean, vs control and THC groups", "setting": "[3]; 3-day treatment", "result": "significantly increased"},
      {"measurement": "comet tail intensity, mean, rank among groups", "setting": "[3]; 7-day treatment", "result": "highest mean value"},
      {"measurement": "DNA damage, rank among groups", "setting": "[3]; all timepoints", "result": "highest DNA damage"},
      {"measurement": "primary DNA damage, 1-day vs 3 days", "setting": "[3]; single IRI", "result": "lower than after 3 days"},
      {"measurement": "level of DNA damage with prolonged treatment duration", "setting": "[3]; single IRI, seven days", "result": "slightly diminished"},
      {"measurement": "SOD activity in liver vs control", "setting": "liver of rats [4]", "result": "significantly higher"},
      {"measurement": "lipid peroxidation in the liver", "setting": "CDF1 mice", "result": "increases of IRI-potentiated lipid peroxidation"},
      {"measurement": "maximum tolerated dose for rats", "setting": "rats; per week", "result": 100, "unit": "mg/kg b.w."},
      {"measurement": "mortality and gastrointestinal mucositis", "setting": "rats; single dose of 200 mg/kg", "result": "low mortality, but caused reproducible gastrointestinal mucositis"},
      {"measurement": "primary DNA damage in liver cells", "setting": "liver cells of rats", "result": "significant increase"},
      {"measurement": "TBARS concentration in liver, IRI-treated vs control", "setting": "liver of rats [5]; 3- and 7-day timepoints", "result": "not significant"},
      {"measurement": "TBARS concentration in liver (lipid peroxidation), rank among groups", "setting": "liver of rats [5]; one day following application", "result": "highest level of lipid peroxidation"}
    ]},
    {"smiles": "CCc1c2c(nc3ccc(OC(=O)N4CCC(N)CC4)cc13)-c1cc3c(c(=O)n1C2)COC(=O)[C@]3(O)CC", "note": "[NPC, 7-ethyl-10-[4-(1-piperidino)-1-amino]-carbonyloxycamptothecin]", "values": [
      {"measurement": "cytotoxic potential", "setting": "[1]", "result": "significantly lower cytotoxic potential"}
    ]},
    {"smiles": "CCc1c2c(nc3ccc(O)cc13)-c1cc3c(c(=O)n1C2)COC(=O)[C@]3(O)CC", "note": "[SN-38]", "values": [
      {"measurement": "cytotoxicity relative to the parent compound (IRI)", "setting": "[1]", "result": "100–1000 fold"}
    ]},
    {"smiles": "CCCCCc1cc(O)c2c(c1)OC(C)(C)C1CCC(C)=CC21", "note": "(stereo not drawn) [THC, Δ^9-tetrahydrocannabinol]", "values": [
      {"measurement": "serum bilirubin level vs single IRI and combined treatment", "setting": "male Wistar rats [6]", "result": "higher"},
      {"measurement": "ALP level in serum", "setting": "male Wistar rats [7]", "result": "increased"},
      {"measurement": "comet tail length, mean", "setting": "[3]; continuous 7-day oral exposure, compared to shorter treatments", "result": "significantly higher mean value of tail length"},
      {"measurement": "risk for genotoxicity", "setting": "[3]; shorter exposures (1-, 3-day) to THC p.o.", "result": "not associated with a significant risk for genotoxicity"},
      {"measurement": "ALT activity in serum vs IRI-treated rats", "setting": "male Wistar rats [8]; 3-day exposure", "result": "statistically significant increase"},
      {"measurement": "ALT level in serum", "setting": "male Wistar rats [8]; THC p.o., day 3", "result": "somewhat increased"},
      {"measurement": "genotoxic adverse outcomes", "setting": "[9]", "result": "usually not associated with genotoxic adverse outcomes"},
      {"measurement": "AST activity in serum, trend", "setting": "male Wistar rats [10]", "result": "trend towards increased AST activity"},
      {"measurement": "liver function / serum liver markers, overall", "setting": "male Wistar rats [11]", "result": "affected ALP and AP levels more than single IRI"},
      {"measurement": "CAT activity in liver vs control and IRI-treated rats", "setting": "liver of rats [12]", "result": "significantly increased"},
      {"measurement": "lipid peroxidation in the liver", "setting": "Sprague-Dawley rats", "result": "slightly elevated"},
      {"measurement": "liver CAT activity vs control rats", "setting": "Sprague-Dawley rats", "result": "decreased"},
      {"measurement": "liver SOD activity vs control rats", "setting": "Sprague-Dawley rats", "result": "non-significant decrease"}
    ]}
  ]
}
